[invAb] = inverted abasic unit; d = 2'-deoxy (DNA); m = 2'-O-methyl; r = 2'-OH (RNA); f = 2'-fluoro

The data set concerns ICAM-1 mRNA. Briefly: ICAM-1 mRNA knock-down in transfected Calu-1 cells (Taqman RT-PCR). Format: cell-based, human. As to conditions: Calu-1 cells, 10 nM siNA, 24 hrs post-transfection, mean ± S.D., relative to non-targeting control. How it is done:
Calu-1 (human; ATCC cat# HTB-54): Cells were cultured at 37° C. in the presence of 5% CO2 and grown in McCoy's 5a medium supplemented with fetal bovine serum at a final concentration of 10% and 100 μg/mL of streptomycin and 100 U/mL penicillin.
All transfections were performed using RNAiMax (Invitrogen Cat# 13778-150) as per the manufacturer's instructions.
Calu-1 cells were plated in all wells of a tissue-culture treated, 96-well plate at final counts of 5,000 cells/well in 100 μL of appropriate culture media. Cells were cultured for 24 hours after plating at 37° C. in the presence of 5% CO2.
After 24 hours, complexes containing siNA and RNAiMax were created as follows. A solution of RNAiMax diluted 33-fold in OPTI-MEM was prepared. In parallel, solutions of the siNAs for testing were prepared to a final concentration of 120 nM in OPTI-MEM. After incubation of RNAiMax/OPTI-MEM solution at room temperature for 5 min, an equal volume of the siNA solution and the RNAiMax solution were added together for each of the siNAs. […] This solution was incubated at room temperature for 20 minutes. After incubation, 20 uL of the solution was added to each of the relevant wells. The final concentration of siNA in each well was 10 nM and the final volume of RNAiMax in each well was 0.3 uL.
The time of incubation with the RNAiMax-siNA complexes was 24 hours, unless otherwise indicated. There was no change in media between the transfection and harvesting of the cells unless otherwise indicated.
Dose response curves were carried out in a similar fashion in 96-well plates, while maintaining a constant amount of RNAiMax in each transfection.
RNA was extracted from a 96-well plate using the TaqMan® Gene Expression Cells-to-CT™ Kit (Cat# 4399002) with a modified protocol. Briefly, a 60 uL (1 plate) or 110 uL (2 plates) of the Lysis Solution with DNase I was dispensed into each well of the Lysis Buffer Plate (twin.tec full skirt plate). The lysis buffer and stop plates were stored at 4° C. until the cells were washed.
The plate was spun at 1100 rpm for 5 minutes. The culture medium was aspirated and discarded from the wells of the culture plate. The lysis was performed automatically using a BioMek FX instrument and method. After the Biomek method was completed, the lysis plate was incubated for 2 min. at room temperature. The lysis plate can be stored for 2 hours at 4° C., or at −20° C. or −80° C. for two months.
Each well of the reverse transcription plate required 10 uL of 2× reverse transcriptase Buffer, 1 uL of 20× reverse transcription enzyme and 2 uL of nuclease-free water. The reverse transcription master mix was prepared by mixing 2× reverse transcription buffer, 20× reverse transcription enzyme mix, and nuclease-free water. 13 uL of the reverse transcription master mix was dispensed into each well of the reverse transcription plate (semi-skirted). A separate reverse transcription plate was prepared for each cell plate. The plate was loaded onto a Biomek NX or Biomek FX Dual-96 and the Biomek method was run. The program is programmed to automatically added 7 uL of lysate from the cell lysis procedure described above into each well of the reverse transcription plate. The plate is sealed and spun on a centrifuge (1000 rpm for 30 seconds) to settle the contents to the bottom of the reverse transcription plate. The plate is placed in a thermocycler at 37° C. for 60 min, 95° C. for 5 min, and 4° C. until the plate is removed from the thermocycler. Upon removal, if not used immediately, the plate was frozen at −20° C.
A series of probes and primers were used to detect the various mRNA transcripts of the genes of ICAM-1 and ICAM-2 in human cell lines (see Table 2). All the Taqman probes and primers for the experiments here-in described were supplied as pre-validated sets by Applied Biosystems, Inc., (see Table 2). The assays were performed on an ABI 7900 instrument, according to the manufacturer's instructions. […]
(In general: Quantitative PCR measures a nucleic acid by following its amplification.)
Regarding “48718-DC: siNA duplex, ICAM-1 target site 1938 (h); sense B cucuuccucGGccuucccA TTB; antisense UGGGAAGGccGAGGAAGAGUU (sense CUCUUCCUCGGCCUUCCCATT; antisense UGGGAAGGCCGAGGAAGAGUU; sense: sugars from the 5' end f9 d2 f7 d3, [invAb] at 5' end, 3' end, backbone not given here; antisense: sugars from the 5' end r4 m4 f2 m11, backbone not given here)”, the “% KD Human” value turned out to be 19 ± 11%. The figure for “48720-DC: siNA duplex, ICAM-1 target site 1609 (h); sense B GuGucuAAAGGAuGGcAcu TTB; antisense AGUGccAuccuuuAGAcAcUU (sense GUGUCUAAAGGAUGGCACUTT; antisense AGUGCCAUCCUUUAGACACUU; sense: DNA at AGT, 2'-fluoro at CU, [invAb] at 5' end, 3' end, backbone not given here; antisense: sugars from the 5' end rrrmffmffffffmmmfmfmm, backbone not given here)” is 48 ± 20%. To “48727-DC: siNA duplex, ICAM-1 target site 1521 (h); sense B GGGAuuGuccGGGAAAcuG TTB; antisense CAGuuucccGGAcAAucccUU (sense GGGAUUGUCCGGGAAACUGTT; antisense CAGUUUCCCGGACAAUCCCUU; sense: DNA at AGT, 2'-fluoro at CU, [invAb] at 5' end, 3' end, backbone not given here; antisense: sugars from the 5' end rrrffffffmmmfmmffffmm, backbone not given here)” belongs 23 ± 6%. The figure for “48725-DC: siNA duplex, ICAM-1 target site 1143 (h); sense B cAGucAGuGuGAccGcAGA TTB; antisense UCUGcGGucAcAcuGAcuGUU (sense CAGUCAGUGUGACCGCAGATT; antisense UCUGCGGUCACACUGACUGUU; sense: DNA at AGT, 2'-fluoro at CU, [invAb] at 5' end, 3' end, backbone not given here; antisense: sugars from the 5' end rrrmfmmffmfmffmmffmmm, backbone not given here)” is 53 ± 19%; for “48711-DC: siNA duplex, ICAM-1 target site 1577 (m); sense B cGuGAuGGcAGccucuuAu TTB; antisense AUAAGAGGcuGccAucAcGUU (sense CGUGAUGGCAGCCUCUUAUTT; antisense AUAAGAGGCUGCCAUCACGUU; sense: DNA at AGT, 2'-fluoro at CU, [invAb] at 5' end, 3' end, backbone not given here; antisense: sugars from the 5' end rrrmmmmmffmffmffmfmmm, backbone not given here)” it is 42 ± 13%; for “48708-DC: siNA duplex, ICAM-1 target site 1762 (m); sense B AcAGcAuuuAcccucAGcc TTB; antisense GGCuGAGGGuAAAuGcuGuUU (sense ACAGCAUUUACCCUCAGCCTT; antisense GGCUGAGGGUAAAUGCUGUUU; sense: DNA at AGT, 2'-fluoro at CU, [invAb] at 5' end, 3' end, backbone not given here; antisense: sugars from the 5' end rrrfmmmmmfmmmfmffmfmm, backbone not given here)” it is 22 ± 9%. As for “48721-DC: siNA duplex, ICAM-1 target site 523 (h); sense B GuuGcuccuGccuGGGAAc TTB; antisense GUUcccAGGcAGGAGcAAcUU (sense GUUGCUCCUGCCUGGGAACTT; antisense GUUCCCAGGCAGGAGCAACUU; sense: DNA at AGT, 2'-fluoro at CU, [invAb] at 5' end, 3' end, backbone not given here; antisense: sugars from the 5' end rrrfffmmmfmmmmmfmmfmm, backbone not given here)”, the “% KD Human” value is recorded as 56 ± 16%. As to “48715-DC: siNA duplex, ICAM-1 target site 1828 (m); sense B AcuuGuAGccucAGAGcuA TTB; antisense UAGcucuGAGGcuAcAAGuUU (sense ACUUGUAGCCUCAGAGCUATT; antisense UAGCUCUGAGGCUACAAGUUU; sense: DNA at AGT, 2'-fluoro at CU, [invAb] at 5' end, 3' end, backbone not given here; antisense: sugars from the 5' end rrrffffmmmmffmfmmmfmm, backbone not given here)”, the “% KD Human” value stood at 14 ± 12%. Consider “29290-DC: siNA duplex, ICAM-1 target site 1226 (h); sense B cAGAcAGuGAccAucuAcA TTB; antisense UGUAGAuGGucAcuGucuGUU (sense CAGACAGUGACCAUCUACATT; antisense UGUAGAUGGUCACUGUCUGUU; sense: DNA at AGT, 2'-fluoro at CU, [invAb] at 5' end, 3' end, backbone not given here; antisense: sugars from the 5' end rrrmmmfmmffmffmfffmmm, backbone not given here)”, for which the “% KD Human” value is given as 47 ± 18%. To “48704-DC: siNA duplex, ICAM-1 target site 395 (m); sense B cGuGuAuucGuuuccGGAG TTB; antisense CUCcGGAAAcGAAuAcAcGUU (sense CGUGUAUUCGUUUCCGGAGTT; antisense CUCCGGAAACGAAUACACGUU; sense: DNA at AGT, 2'-fluoro at CU, [invAb] at 5' end, 3' end, backbone not given here; antisense: sugars from the 5' end rrrfmmmmmfmmmfmfmfmmm, backbone not given here)” belongs 33 ± 22%; to “48723-DC: siNA duplex, ICAM-1 target site 390 (h); sense B cuGGcAAuGcccAGAcAuc TTB; antisense GAUGucuGGGcAuuGccAGUU (sense CUGGCAAUGCCCAGACAUCTT; antisense GAUGUCUGGGCAUUGCCAGUU; sense: DNA at AGT, 2'-fluoro at CU, [invAb] at 5' end, 3' end, backbone not given here; antisense: sugars from the 5' end rrrmfffmmmfmffmffmmmm, backbone not given here)”, 68 ± 12%; to “48707-DC: siNA duplex, ICAM-1 target site 258 (m); sense B AcucAGuGGcuGAAAGAuG TTB; antisense CAUcuuucAGccAcuGAGuUU (sense ACUCAGUGGCUGAAAGAUGTT; antisense CAUCUUUCAGCCACUGAGUUU; sense: DNA at AGT, 2'-fluoro at CU, [invAb] at 5' end, 3' end, backbone not given here; antisense: sugars from the 5' end rrrfffffmmffmffmmmfmm, backbone not given here)”, 46 ± 17%.

On to “29289-DC: siNA duplex, ICAM-1 target site 2152 (h); sense B GGAGcAAGAcucAAGAcAu TTB; antisense AUGucuuGAGucuuGcuccUU (sense GGAGCAAGACUCAAGACAUTT; antisense AUGUCUUGAGUCUUGCUCCUU; sense: DNA at AGT, 2'-fluoro at CU, [invAb] at 5' end, 3' end, backbone not given here; antisense: sugars from the 5' end rrrffffmmmffffmffffmm, backbone not given here)”, for which the “% KD Human” value is given as 78 ± 15%.

The record behind these values is patent US20120004282A1, “RNA Interference Mediated Inhibition of the Intercellular Adhesion Molecule 1 (ICAM-1) Gene Expression Using Short Interfering Nucleic Acid (siNA)” (Merck Sharp & Dohme Corp,, priority 2009, published 2012).
